Measured values taken from PubChem BioAssay AID328 (DTP/NCI, 2004).
Several values for one entry are separate records, joined by “and”; a condition that tells them apart may be missing. Equal entries are not always repeated. Inconclusive results and toxic doses are left out.

System: BDF1 mice, P388 leukemia ip, median survival T/C
Test: NCI In Vivo Anticancer Drug Screen. Data for tumor model P388 Leukemia (intraperitoneal) in B6D2F1 (BDF1) mice
Settings: endpoint: median survival time, higher = longer survival
Summary of the method: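 Reported as T/C, where T is the survival measurement in dosed animals and C the same measurement in vehicle controls.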

[1] = dose: 100.0 mg/kg/injection, schedule: Q01DX009 (ip), vehicle: saline with Tween-80

Compound: CCC1CC2CC(c3cc4c(cc3OC)N(C)C3C(O)(C(=O)OC)C(OC(C)=O)C5(CC)C=CCN6CCC43C65)c3[nH]c4ccccc4c3CCN(C1)C2 (configuration not stated)
- T/C (dose: 0.03 mg/kg/injection, schedule: Q01DX009 (ip), vehicle: water): 181 % of control
- T/C (dose: 0.06 mg/kg/injection, schedule: Q01DX009 (ip), vehicle: water): 100 % of control
- T/C (dose: 0.12 mg/kg/injection, schedule: Q01DX009 (ip), vehicle: water): 100 % of control
- T/C (dose: 0.25 mg/kg/injection, schedule: Q01DX009 (ip), vehicle: water): 90 % of control and 95 % of control
- T/C (dose: 0.25 mg/kg/injection, schedule: Q04DX003 (ip), vehicle: water): 90 % of control
- T/C (dose: 0.5 mg/kg/injection, schedule: Q01DX009 (ip), vehicle: water): 100 % of control and 104 % of control
- T/C (dose: 0.5 mg/kg/injection, schedule: Q04DX003 (ip), vehicle: water): 95 % of control
- T/C (dose: 1.0 mg/kg/injection, schedule: Q01DX009 (ip), vehicle: water): 109 % of control
- T/C (dose: 1.0 mg/kg/injection, schedule: Q04DX003 (ip), vehicle: water): 95 % of control
- T/C (dose: 2.0 mg/kg/injection, schedule: Q01DX009 (ip), vehicle: water): 104 % of control
- T/C (dose: 4.0 mg/kg/injection, schedule: Q04DX003 (ip), vehicle: water): 95 % of control
- T/C (dose: 6.0 mg/kg/injection, schedule: Q04DX003 (ip), vehicle: water): 90 % of control
- T/C (dose: 5.0 micrograms/kg/injection, schedule: Q01DX009 (ip), vehicle: water): 104 % of control
- T/C (dose: 10.0 micrograms/kg/injection, schedule: Q01DX009 (ip), vehicle: water): 102 % of control
- T/C (dose: 20.0 micrograms/kg/injection, schedule: Q01DX009 (ip), vehicle: water): 90 % of control
- T/C (dose: 40.0 micrograms/kg/injection, schedule: Q01DX009 (ip), vehicle: water): 100 % of control
- T/C (dose: 80.0 micrograms/kg/injection, schedule: Q01DX009 (ip), vehicle: water): 92 % of control

Compound: ClC1=C(Br)C(Br)(Br)C(=C(Br)Br)C1(Br)Br
- T/C [1]: 100 % of control
- T/C (dose: 100.0 mg/kg/injection, schedule: Q04DX003 (ip), vehicle: Klucel (hydroxypropylcellulose) (HPC)): 90 % of control
- T/C (dose: 200.0 mg/kg/injection, schedule: Q01DX009 (ip), vehicle: saline with Tween-80): 109 % of control
- T/C (dose: 400.0 mg/kg/injection, schedule: Q01DX009 (ip), vehicle: saline with Tween-80): 104 % of control
- T/C (dose: 400.0 mg/kg/injection, schedule: Q04DX003 (ip), vehicle: Klucel (hydroxypropylcellulose) (HPC)): 100 % of control

Compound: COc1ccc(CC2c3ccccc3CC[N+]2(C)C)cc1Oc1ccc(CC2c3ccccc3CC[N+]2(C)C)cc1 (configuration not stated)
- T/C (dose: 0.39 mg/kg/injection, schedule: Q04DX003 (ip), vehicle: saline): 98 % of control
- T/C (dose: 0.78 mg/kg/injection, schedule: Q04DX003 (ip), vehicle: saline): 105 % of control
- T/C (dose: 1.56 mg/kg/injection, schedule: Q04DX003 (ip), vehicle: saline with Tween-80): 104 % of control

Compound: COC12C(COC(=O)NCCO)C3=C(C(=O)C(C)=C(N)C3=O)N1CC1NC12 (configuration not stated)
- T/C (dose: 6.25 mg/kg/injection, schedule: Q01DX009 (ip), vehicle: saline): 209 % of control
- T/C (dose: 12.5 mg/kg/injection, schedule: Q01DX009 (ip), vehicle: saline): 228 % of control and 230 % of control
- T/C (dose: 25.0 mg/kg/injection, schedule: Q01DX009 (ip), vehicle: saline): 231 % of control and 254 % of control

Compound: Cc1nc([N+](=O)[O-])cn1CC/C(N)=N/O
- T/C (dose: 100.0 mg/kg/injection, schedule: Q04DX003 (ip), vehicle: saline with Tween-80): 108 % of control
- T/C (dose: 200.0 mg/kg/injection, schedule: Q04DX003 (ip), vehicle: saline with Tween-80): 105 % of control
- T/C (dose: 400.0 mg/kg/injection, schedule: Q04DX003 (ip), vehicle: saline with Tween-80): 115 % of control

Compound: Nc1nc2c(ccc3ccccc32)s1
- T/C (dose: 25.0 mg/kg/injection, schedule: Q01DX009 (ip), vehicle: saline with Tween-80): 117 % of control
- T/C (dose: 50.0 mg/kg/injection, schedule: Q01DX009 (ip), vehicle: saline with Tween-80): 117 % of control
- T/C [1]: 122 % of control

Compound: CCCCCC(CN(C)C)C(=O)/C=C/c1ccc(Cl)c(Cl)c1 (configuration not stated)
- T/C (dose: 2.75 mg/kg/injection, schedule: Q01DX009 (ip), vehicle: saline): 110 % of control
- T/C (dose: 4.12 mg/kg/injection, schedule: Q01DX009 (ip), vehicle: saline): 105 % of control
- T/C (dose: 50.0 mg/kg/injection, schedule: Q01DX001 (ip), vehicle: saline): 100 % of control
